From a compilation of properties of binary mixtures (doi:10.1016/j.molliq.2017.09.038)

Experiment: xn = mol fraction of the nth substance listed
Conditions: 101 kPa

CCCCCCCCCC[n+]1ccn(C)c1.[Br-] + O
viscosity [mPa·s]
Conditions	288 K	293 K	298 K	303 K	308 K
x1 = 0.0146	3.39	3.21	2.77	–	1.94
x1 = 0.0194	4.6	4.1	3.72	–	2.83
x1 = 0.0248	6.77	5.99	5.72	5.12	4.22
x1 = 0.031	9.19	8.61	8.09	7.92	7.3
